Reference: BindingDB's records for doi:10.1021/jm00089a010 (Abbott Laboratories, 1992)
Where a SMILES comes first, the peptide text is derived from it. [ ]: non-standard residue; d: D form. The star is where a group is joined. Propanoyl(3-(4-F-phenyl)) = O=C(CCc1ccc(F)cc1)*; Acryloyl(3-(pyridin-3-yl)) = O=C(C=Cc1cccnc1)*; Propanoyl(3-(4-Cl-Ph)) = O=C(CCc1ccc(Cl)cc1)*; 2Naphthoyl(6-OH) = O=C(c1ccc2cc(O)ccc2c1)*; Hydrocinnamoyl(4-Me) = Cc1ccc(CCC(=O)*)cc1; Quinoline3carbonyl = O=C(c1cnc2ccccc2c1)*; X36 = O=C(C=Cc1ccc(OS(=O)(=O)O)cc1)*; X20 = CC(=O)Oc1ccc2cc(C(=O)*)ccc2c1; X22 = O=C(CCc1cccc(OS(=O)(=O)O)c1)*; Hydrocinnamoyl = O=C(CCc1ccccc1)*; X17 = COc1ccc(/C=C\C(=O)*)c(OC)c1; NMeF = CN[C@@H](Cc1ccccc1)C(=O)O; X10 = O=C(/C=C\c1ccc(Cl)cc1Cl)*; X14 = O=C(c1cc2cc(O)ccc2[nH]1)*; X2 = O=C(c1cc2cc(Cl)ccc2[nH]1)*; X31 = COc1ccc(/C=C\C(=O)*)cc1OC; X37 = O=C(C=Cc1c[nH]c2ccccc12)*; X7 = CN(C)c1ccc(/C=C\C(=O)*)cc1; X8 = COc1ccc2[nH]c(C(=O)*)cc2c1; X12 = O=C(c1cnc2cccc(O)c2c1)*; X11 = O=C(/C=C\c1ccc(O)cc1)*; X18 = O=C(c1cc2ccccc2[nH]1)*; X16 = O=C(/C=C\c1ccccc1O)*; X19 = O=C(/C=C\c1ccccc1)*; X27 = O=C(Cc1ccc(O)cc1)*; X5 = O=C(CCc1cccc(O)c1)*; Boc = CC(C)(C)OC(=O)*

What follows are molecules tested against Gastrin/cholecystokinin type B receptor (Cavia porcellus) (assay: Inhibition of specific binding of [125I]BH-CCK-8 in guinea pig cortex).
Work on `CN(C(=O)[C@H](CC(=O)O)NC(=O)[C@H](CCCCNC(=O)c1ccc2cc(O)ccc2c1)NC(=O)[C@H](Cc1c[nH]c2ccccc12)NC(=O)OC(C)(C)C)[C@@H](Cc1ccccc1)C(N)=O` (Boc-WK(2Naphthoyl(6-OH))D[NMeF]-NH2) yielded an IC50 of 0.73 µM.
Work on `CN(C(=O)[C@H](CC(=O)O)NC(=O)[C@H](CCCCNC(=O)C=Cc1cccnc1)NC(=O)[C@H](Cc1c[nH]c2ccccc12)NC(=O)OC(C)(C)C)[C@@H](Cc1ccccc1)C(N)=O` (Boc-WK(Acryloyl(3-(pyridin-3-yl)))D[NMeF]-NH2) yielded an IC50 of 0.12 µM.
For `CC(C)(C)OC(=O)N[C@@H](Cc1c[nH]c2ccccc12)C(=O)N[C@@H](CCCCNC(=O)c1cnc2ccccc2c1)C(=O)N[C@@H](CC(=O)O)C(=O)N[C@@H](Cc1ccccc1)C(N)=O` (Boc-WK(Quinoline3carbonyl)DF-NH2), the IC50 was 0.2 µM.
With `CC(C)(C)OC(=O)N[C@@H](Cc1c[nH]c2ccccc12)C(=O)N[C@@H](CCCCNC(=O)c1cc2cc(Cl)ccc2[nH]1)C(=O)N[C@@H](CC(=O)O)C(=O)N[C@@H](Cc1ccccc1)C(N)=O` (Boc-WK(X2)DF-NH2) the IC50 was 5.2 µM.
Molecule `COc1ccc2[nH]c(C(=O)NCCCC[C@H](NC(=O)[C@H](Cc3c[nH]c4ccccc34)NC(=O)OC(C)(C)C)C(=O)N[C@@H](CC(=O)O)C(=O)N[C@@H](Cc3ccccc3)C(N)=O)cc2c1` (Boc-WK(X8)DF-NH2) has an IC50 of 3 µM.
For `CC(C)(C)OC(=O)N[C@@H](Cc1c[nH]c2ccccc12)C(=O)N[C@@H](CCCCNC(=O)c1cnc2cccc(O)c2c1)C(=O)N[C@@H](CC(=O)O)C(=O)N[C@@H](Cc1ccccc1)C(N)=O` (Boc-WK(X12)DF-NH2), the IC50 was 0.67 µM.
With `CC(C)(C)OC(=O)N[C@@H](Cc1c[nH]c2ccccc12)C(=O)N[C@@H](CCCCNC(=O)c1cc2cc(O)ccc2[nH]1)C(=O)N[C@@H](CC(=O)O)C(=O)N[C@@H](Cc1ccccc1)C(N)=O` (Boc-WK(X14)DF-NH2) the IC50 was 0.83 µM.
For `CC(C)(C)OC(=O)N[C@@H](Cc1c[nH]c2ccccc12)C(=O)N[C@@H](CCCCNC(=O)c1cc2ccccc2[nH]1)C(=O)N[C@@H](CC(=O)O)C(=O)N[C@@H](Cc1ccccc1)C(N)=O` (Boc-WK(X18)DF-NH2), the IC50 was 2.1 µM.
`CC(=O)Oc1ccc2cc(C(=O)NCCCC[C@H](NC(=O)[C@H](Cc3c[nH]c4ccccc34)NC(=O)OC(C)(C)C)C(=O)N[C@@H](CC(=O)O)C(=O)N[C@@H](Cc3ccccc3)C(N)=O)ccc2c1` (Boc-WK(X20)DF-NH2) gave an IC50 of 1.4 µM.
For `CN(C(=O)[C@H](CC(=O)O)NC(=O)[C@H](CCCCNC(=O)C=Cc1ccc(OS(=O)(=O)O)cc1)NC(=O)[C@H](Cc1c[nH]c2ccccc12)NC(=O)OC(C)(C)C)[C@@H](Cc1ccccc1)C(N)=O` (Boc-WK(X36)D[NMeF]-NH2), the IC50 was 1 µM.
`CC(C)(C)OC(=O)N[C@@H](Cc1c[nH]c2ccccc12)C(=O)N[C@@H](CCCCNC(=O)C=Cc1c[nH]c2ccccc12)C(=O)N[C@@H](CC(=O)O)C(=O)N[C@@H](Cc1ccccc1)C(N)=O` (Boc-WK(X37)DF-NH2) gave an IC50 of 4.7 µM.
Work on `Cc1ccc(CCC(=O)NCCCC[C@H](NC(=O)[C@H](Cc2c[nH]c3ccccc23)NC(=O)OC(C)(C)C)C(=O)N[C@@H](CC(=O)O)C(=O)N[C@@H](Cc2ccccc2)C(N)=O)cc1` [3-[2-[2-tert-Butoxycarbonylamino-3-(1H-indol-3-yl)-propionylamino]-6-(3-p-tolyl-propionylamino)-hexanoylamino]-N-(1-carbamoyl-2-phenyl-ethyl)-succinamic acid] (Boc-WK(Hydrocinnamoyl(4-Me))DF-NH2) yielded an IC50 of 10 µM.
`CC(C)(C)OC(=O)N[C@@H](Cc1c[nH]c2ccccc12)C(=O)N[C@@H](CCCCNC(=O)/C=C\c1ccccc1)C(=O)N[C@@H](CC(=O)O)C(=O)N[C@@H](Cc1ccccc1)C(N)=O` [3-[2-[2-tert-Butoxycarbonylamino-3-(1H-indol-3-yl)-propionylamino]-6-(3-phenyl-acryloylamino)-hexanoylamino]-N-(1-carbamoyl-2-phenyl-ethyl)-succinamic acid.AcOH] (Boc-WK(X19)DF-NH2) was tested, and the IC50 was 1.8 µM.
For `CC(C)(C)OC(=O)N[C@@H](Cc1c[nH]c2ccccc12)C(=O)N[C@@H](CCCCNC(=O)CCc1ccccc1)C(=O)N[C@@H](CC(=O)O)C(=O)N[C@@H](Cc1ccccc1)C(N)=O` [3-[2-[2-tert-Butoxycarbonylamino-3-(1H-indol-3-yl)-propionylamino]-6-(3-phenyl-propionylamino)-hexanoylamino]-N-(1-carbamoyl-2-phenyl-ethyl)-succinamic acid.2AcOH] (Boc-WK(Hydrocinnamoyl)DF-NH2), the IC50 was 5.9 µM.
Molecule `CC(C)(C)OC(=O)N[C@@H](Cc1c[nH]c2ccccc12)C(=O)N[C@@H](CCCCNC(=O)Cc1ccc(O)cc1)C(=O)N[C@@H](CC(=O)O)C(=O)N[C@@H](Cc1ccccc1)C(N)=O` [3-{2-[2-tert-Butoxycarbonylamino-3-(1H-indol-3-yl)-propionylamino]-6-[2-(4-hydroxy-phenyl)-acetylamino]-hexanoylamino}-N-(1-carbamoyl-2-phenyl-ethyl)-succinamic acid; hydrate] (Boc-WK(X27)DF-NH2) has an IC50 of 0.48 µM.
With `CC(C)(C)OC(=O)N[C@@H](Cc1c[nH]c2ccccc12)C(=O)N[C@@H](CCCCNC(=O)/C=C\c1ccc(Cl)cc1Cl)C(=O)N[C@@H](CC(=O)O)C(=O)N[C@@H](Cc1ccccc1)C(N)=O` [3-{2-[2-tert-Butoxycarbonylamino-3-(1H-indol-3-yl)-propionylamino]-6-[3-(2,4-dichloro-phenyl)-acryloylamino]-hexanoylamino}-N-(1-carbamoyl-2-phenyl-ethyl)-succinamic acid; hydrate] (Boc-WK(X10)DF-NH2) the IC50 was 5 µM.
`COc1ccc(/C=C\C(=O)NCCCC[C@H](NC(=O)[C@H](Cc2c[nH]c3ccccc23)NC(=O)OC(C)(C)C)C(=O)N[C@@H](CC(=O)O)C(=O)N[C@@H](Cc2ccccc2)C(N)=O)c(OC)c1` [3-{2-[2-tert-Butoxycarbonylamino-3-(1H-indol-3-yl)-propionylamino]-6-[3-(2,4-dimethoxy-phenyl)-acryloylamino]-hexanoylamino}-N-(1-carbamoyl-2-phenyl-ethyl)-succinamic acid; hydrate] (Boc-WK(X17)DF-NH2) showed an IC50 of 3 µM.
With `CC(C)(C)OC(=O)N[C@@H](Cc1c[nH]c2ccccc12)C(=O)N[C@@H](CCCCNC(=O)/C=C\c1ccccc1O)C(=O)N[C@@H](CC(=O)O)C(=O)N[C@@H](Cc1ccccc1)C(N)=O` [3-{2-[2-tert-Butoxycarbonylamino-3-(1H-indol-3-yl)-propionylamino]-6-[3-(2-hydroxy-phenyl)-acryloylamino]-hexanoylamino}-N-(1-carbamoyl-2-phenyl-ethyl)-succinamic acid; hydrate] (Boc-WK(X16)DF-NH2) the IC50 was 0.21 µM.
`COc1ccc(/C=C\C(=O)NCCCC[C@H](NC(=O)[C@H](Cc2c[nH]c3ccccc23)NC(=O)OC(C)(C)C)C(=O)N[C@@H](CC(=O)O)C(=O)N[C@@H](Cc2ccccc2)C(N)=O)cc1OC` [3-{2-[2-tert-Butoxycarbonylamino-3-(1H-indol-3-yl)-propionylamino]-6-[3-(3,4-dimethoxy-phenyl)-acryloylamino]-hexanoylamino}-N-(1-carbamoyl-2-phenyl-ethyl)-succinamic acid; hydrate] (Boc-WK(X31)DF-NH2) was tested, and the IC50 was 4 µM.
`CC(C)(C)OC(=O)N[C@@H](Cc1c[nH]c2ccccc12)C(=O)N[C@@H](CCCCNC(=O)CCc1cccc(O)c1)C(=O)N[C@@H](CC(=O)O)C(=O)N[C@@H](Cc1ccccc1)C(N)=O` [3-{2-[2-tert-Butoxycarbonylamino-3-(1H-indol-3-yl)-propionylamino]-6-[3-(3-hydroxy-phenyl)-propionylamino]-hexanoylamino}-N-(1-carbamoyl-2-phenyl-ethyl)-succinamic acid; hydarte] (Boc-WK(X5)DF-NH2) was tested, and the IC50 was 3 µM.
`CC(C)(C)OC(=O)N[C@@H](Cc1c[nH]c2ccccc12)C(=O)N[C@@H](CCCCNC(=O)CCc1cccc(OS(=O)(=O)O)c1)C(=O)N[C@@H](CC(=O)O)C(=O)N[C@@H](Cc1ccccc1)C(N)=O` [3-{2-[2-tert-Butoxycarbonylamino-3-(1H-indol-3-yl)-propionylamino]-6-[3-(3-sulfooxy-phenyl)-propionylamino]-hexanoylamino}-N-(1-carbamoyl-2-phenyl-ethyl)-succinamic acid; NH40H.hydrate] (Boc-WK(X22)DF-NH2) was tested, and the IC50 was 10 µM.
In the case of `CC(C)(C)OC(=O)N[C@@H](Cc1c[nH]c2ccccc12)C(=O)N[C@@H](CCCCNC(=O)CCc1ccc(Cl)cc1)C(=O)N[C@@H](CC(=O)O)C(=O)N[C@@H](Cc1ccccc1)C(N)=O` [3-{2-[2-tert-Butoxycarbonylamino-3-(1H-indol-3-yl)-propionylamino]-6-[3-(4-chloro-phenyl)-propionylamino]-hexanoylamino}-N-(1-carbamoyl-2-phenyl-ethyl)-succinamic acid; hydrate] (Boc-WK(Propanoyl(3-(4-Cl-Ph)))DF-NH2), the IC50 is reported as 7 µM.
`CN(C)c1ccc(/C=C\C(=O)NCCCC[C@H](NC(=O)[C@H](Cc2c[nH]c3ccccc23)NC(=O)OC(C)(C)C)C(=O)N[C@@H](CC(=O)O)C(=O)N[C@@H](Cc2ccccc2)C(N)=O)cc1` [3-{2-[2-tert-Butoxycarbonylamino-3-(1H-indol-3-yl)-propionylamino]-6-[3-(4-dimethylamino-phenyl)-acryloylamino]-hexanoylamino}-N-(1-carbamoyl-2-phenyl-ethyl)-succinamic acid; hydrate] (Boc-WK(X7)DF-NH2) showed an IC50 of 2.1 µM.
Work on `CC(C)(C)OC(=O)N[C@@H](Cc1c[nH]c2ccccc12)C(=O)N[C@@H](CCCCNC(=O)CCc1ccc(F)cc1)C(=O)N[C@@H](CC(=O)O)C(=O)N[C@@H](Cc1ccccc1)C(N)=O` [3-{2-[2-tert-Butoxycarbonylamino-3-(1H-indol-3-yl)-propionylamino]-6-[3-(4-fluoro-phenyl)-propionylamino]-hexanoylamino}-N-(1-carbamoyl-2-phenyl-ethyl)-succinamic acid; hydrate] (Boc-WK(Propanoyl(3-(4-F-phenyl)))DF-NH2) yielded an IC50 of 9.9 µM.
`CC(C)(C)OC(=O)N[C@@H](Cc1c[nH]c2ccccc12)C(=O)N[C@@H](CCCCNC(=O)/C=C\c1ccc(O)cc1)C(=O)N[C@@H](CC(=O)O)C(=O)N[C@@H](Cc1ccccc1)C(N)=O` [3-{2-[2-tert-Butoxycarbonylamino-3-(1H-indol-3-yl)-propionylamino]-6-[3-(4-hydroxy-phenyl)-acryloylamino]-hexanoylamino}-N-(1-carbamoyl-2-phenyl-ethyl)-succinamic acid] (Boc-WK(X11)DF-NH2) showed an IC50 of 0.73 µM.
